Legend:
SW-620 = assay: Growth inhibition of human SW620 cells assessed as cell growth at 0.1 uM incubated for 48 hrs by sulforhodamine B assay relative to control; type: functional; details: SW-620, 48 h, read-out: Activity
OVCAR-8 = assay: Growth inhibition of human OVCAR8 cells incubated for 48 hrs by sulforhodamine B assay; type: functional, cell-based; details: OVCAR-8, 48 h
MOLT-4 = assay: Growth inhibition of human MOLT4 cells assessed as cell growth at 0.1 uM incubated for 48 hrs by sulforhodamine B assay relative to control; type: functional; details: MOLT-4, 48 h, read-out: Activity
BT-549 [1] = assay: Growth inhibition of human BT549 cells incubated for 48 hrs by sulforhodamine B assay; type: functional, cell-based; details: BT-549, 48 h
SF-539 [2] = assay: Growth inhibition of human SF539 cells assessed as cell growth at 0.01 uM incubated for 48 hrs by sulforhodamine B assay relative to control; type: functional; details: SF-539, 48 h, read-out: Activity
CCRF-CEM = assay: Growth inhibition of human CCRF-CEM cells assessed as cell growth at 1 uM incubated for 48 hrs by sulforhodamine B assay relative to control; type: functional; details: read-out: Activity
MDA-MB-231 = assay: Growth inhibition of human MDA-MB-231 cells incubated for 48 hrs by sulforhodamine B assay; type: functional, cell-based; details: MDA-MB-231, 48 h
DU-145 = assay: Growth inhibition of human DU145 cells assessed as cell growth at 0.01 uM incubated for 48 hrs by sulforhodamine B assay relative to control; type: functional; details: DU-145, 48 h, read-out: Activity
MCF7 = assay: Growth inhibition of human MCF7 cells assessed as cell growth at 0.1 uM incubated for 48 hrs by sulforhodamine B assay relative to control; type: functional; details: MCF7, 48 h, read-out: Activity
K562 = assay: Growth inhibition of human K562 cells incubated for 48 hrs by sulforhodamine B assay; type: functional, cell-based; details: K562, 48 h
OVCAR-3 = assay: Growth inhibition of human OVCAR3 cells assessed as cell growth at 0.01 uM incubated for 48 hrs by sulforhodamine B assay relative to control; type: functional; details: OVCAR-3, 48 h, read-out: Activity
SF-539 [3] = assay: Growth inhibition of human SF539 cells assessed as cell growth at 1 uM incubated for 48 hrs by sulforhodamine B assay relative to control; type: functional; details: SF-539, 48 h, read-out: Activity
UACC-257 = assay: Growth inhibition of human UACC257 cells incubated for 48 hrs by sulforhodamine B assay; type: functional, cell-based; details: UACC-257, 48 h
M14 = assay: Growth inhibition of human M14 cells assessed as cell growth at 100 uM incubated for 48 hrs by sulforhodamine B assay relative to control; type: functional; details: M14, 48 h, read-out: Activity
NCI-H23 = assay: Growth inhibition of human NCI-H23 cells assessed as cell growth at 0.1 uM incubated for 48 hrs by sulforhodamine B assay relative to control; type: functional; details: NCI-H23, 48 h, read-out: Activity
HOP-62 = assay: Growth inhibition of human HOP62 cells assessed as cell growth at 0.01 uM incubated for 48 hrs by sulforhodamine B assay relative to control; type: functional; details: HOP-62, 48 h, read-out: Activity
LOX IMVI = assay: Growth inhibition of human LOXIMVI cells assessed as cell growth at 0.01 uM incubated for 48 hrs by sulforhodamine B assay relative to control; type: functional; details: read-out: Activity
HCC 2998 = assay: Growth inhibition of human HCC2998 cells assessed as cell growth at 100 uM incubated for 48 hrs by sulforhodamine B assay relative to control; type: functional; details: HCC 2998, 48 h, read-out: Activity
KM12 [4] = assay: Growth inhibition of human KM12 cells assessed as cell growth at 0.1 uM incubated for 48 hrs by sulforhodamine B assay relative to control; type: functional; details: KM12, 48 h, read-out: Activity
A549 = assay: Growth inhibition of human A549/ATCC cells assessed as cell growth at 0.1 uM incubated for 48 hrs by sulforhodamine B assay relative to control; type: functional; details: A549, 48 h, read-out: Activity
SK-MEL-2 = assay: Growth inhibition of human SK-MEL-2 cells assessed as cell growth at 100 uM incubated for 48 hrs by sulforhodamine B assay relative to control; type: functional; details: SK-MEL-2, 48 h, read-out: Activity
MDA-MB-468 = assay: Growth inhibition of human MDA-MB-468 cells assessed as cell growth at 1 uM incubated for 48 hrs by sulforhodamine B assay relative to control; type: functional; details: MDA-MB-468, 48 h, read-out: Activity
UO-31 = assay: Growth inhibition of human UO31 cells incubated for 48 hrs by sulforhodamine B assay; type: functional, cell-based; details: UO-31, 48 h
KM12 [5] = assay: Growth inhibition of human KM12 cells assessed as cell growth at 0.01 uM incubated for 48 hrs by sulforhodamine B assay relative to control; type: functional; details: KM12, 48 h, read-out: Activity
RXF 393 = assay: Growth inhibition of human RXF393 cells assessed as cell growth at 0.1 uM incubated for 48 hrs by sulforhodamine B assay relative to control; type: functional; details: RXF 393, 48 h, read-out: Activity
HCT-116 = assay: Growth inhibition of human HCT116 cells incubated for 48 hrs by sulforhodamine B assay; type: functional, cell-based; details: HCT-116, 48 h
BT-549 [6] = assay: Growth inhibition of human BT549 cells assessed as cell growth at 1 uM incubated for 48 hrs by sulforhodamine B assay relative to control; type: functional; details: BT-549, 48 h, read-out: Activity
COLO 205 = assay: Growth inhibition of human COLO205 cells assessed as cell growth at 0.01 uM incubated for 48 hrs by sulforhodamine B assay relative to control; type: functional; details: COLO 205, 48 h, read-out: Activity
[7] = read-out: LC50 (the source's name)
[8] = read-out: pLC50 (the source's name) (converted)

COc1cc(Cl)cc(-c2nn(-c3cccc(NC(=O)c4ccc(N5CCOCC5)c(C(F)(F)F)c4)c3)cc2-c2ccncc2)c1
growth at 0.1 µM (SW-620): 101% | GI50 (OVCAR-8; read-out: GI50): 6.33 µM | CC50 (OVCAR-8; [7]): > 100 µM | TGI (OVCAR-8; read-out: TGI): > 100 µM | GI50 (OVCAR-8; read-out: pGI50 (converted)): 6.31 µM | CC50 (OVCAR-8; [8]): > 100 µM | TGI (OVCAR-8; read-out: pTGI (converted)): > 100 µM | growth at 0.1 µM (MOLT-4): 90% | GI50 (BT-549 [1]; read-out: GI50): 5.9 µM | CC50 (BT-549 [1]; [7]): > 100 µM | TGI (BT-549 [1]; read-out: TGI): > 100 µM | GI50 (BT-549 [1]; read-out: pGI50 (converted)): 89.1 µM | CC50 (BT-549 [1]; [8]): > 100 µM | TGI (BT-549 [1]; read-out: pTGI (converted)): > 100 µM | growth at 0.01 µM (SF-539 [2]): 99% | growth at 1 µM (CCRF-CEM): 56% | GI50 (MDA-MB-231; read-out: GI50): 2.53 µM | CC50 (MDA-MB-231; [7]): > 100 µM | TGI (MDA-MB-231; read-out: TGI): 32.4 µM | GI50 (MDA-MB-231; read-out: pGI50 (converted)): 2.82 µM | CC50 (MDA-MB-231; [8]): > 100 µM | TGI (MDA-MB-231; read-out: pTGI (converted)): 32.4 µM | growth at 0.01 µM (DU-145): 108% | growth at 0.1 µM (MCF7): 92% | GI50 (K562; read-out: GI50): 3.1 µM | LC50 (K562; read-out: LC50): > 100 µM | TGI (K562; read-out: TGI): > 100 µM | GI50 (K562; read-out: pGI50 (converted)): 3.09 µM | LC50 (K562; read-out: pLC50 (converted)): > 100 µM | TGI (K562; read-out: pTGI (converted)): > 100 µM | growth at 0.01 µM (OVCAR-3): 100% | growth at 1 µM (SF-539 [3]): 57% | GI50 (UACC-257; read-out: GI50): 2.17 µM | CC50 (UACC-257; [7]): > 100 µM | TGI (UACC-257; read-out: TGI): 69.1 µM | GI50 (UACC-257; read-out: pGI50 (converted)): 21.9 µM | CC50 (UACC-257; [8]): > 100 µM | TGI (UACC-257; read-out: pTGI (converted)): 69.2 µM | growth at 100 µM (M14): 5% | growth at 0.1 µM (NCI-H23): 90% | growth at 0.01 µM (HOP-62): 104% | growth at 0.01 µM (LOX IMVI): 97% | growth at 100 µM (HCC 2998): -5% | growth at 0.1 µM (KM12 [4]): 95% | growth at 0.1 µM (A549): 102% | growth at 100 µM (SK-MEL-2): 15% | growth at 1 µM (MDA-MB-468): 56% | IC50 (UO-31): 4.5 µM | GI50 (UO-31; read-out: GI50): 4.5 µM | CC50 (UO-31; [7]): > 100 µM | TGI (UO-31; read-out: TGI): > 100 µM | GI50 (UO-31; read-out: pGI50 (converted)): 4.47 µM | CC50 (UO-31; [8]): > 100 µM | TGI (UO-31; read-out: pTGI (converted)): > 100 µM | growth at 0.01 µM (KM12 [5]): 96% | growth at 0.1 µM (RXF 393): 100% | IC50 (HCT-116): 9.64 µM | GI50 (HCT-116; read-out: GI50): 9.54 µM | CC50 (HCT-116; [7]): > 100 µM | TGI (HCT-116; read-out: TGI): > 100 µM | GI50 (HCT-116; read-out: pGI50 (converted)): 9.55 µM | CC50 (HCT-116; [8]): > 100 µM | TGI (HCT-116; read-out: pTGI (converted)): > 100 µM | growth at 1 µM (BT-549 [6]): 59% | growth at 0.01 µM (COLO 205): 103%

— ChEMBL document CHEMBL4308841, “Synthesis, in vitro antiproliferative activity, and kinase inhibitory effects of pyrazole-containing diarylureas and diarylamides” (Eur J Med Chem, 2018)
